Test results: PubChem BioAssay AID2060897 (Molecular Pharmacology Branch, DTP, NCI, 2025)
Blank lines part the entries; values can stand above or below the compound they belong to.

Test system: 966289-007-R4-J1-PDC complex spheroid viability
Assay: Anticancer human tumor 966289-007-R4-J1-PDC patient-derived pancreatic adenocarcinoma cell line growth inhibition [RAS]
Details: for viability, T/C: stronger effect = lower value
Description: RAS pathway inhibitors in Combinations in Complex Spheroids
A high-throughput screen of multi-cell type tumor spheroids was designed to identify active combinations of RAS pathway inhibitors and targeted small molecules. Complex spheroids include a stromal component modeled by human endothelial cells (HUVEC) and fibroblasts modeled by human mesenchymal stem cells (MSCs). The concentration ranges selected for each drug and investigational agent were based upon clinically achievable concentrations if the clinical Cmax of the agent was known.
Compounds. The drugs and investigational agents: abemaciclib (NSC768073), cobimetinib (NSC768068), divarasib (GDC6063, NSC841802), docetaxel (NSC628503), GDC-1971 (RLY-1971, NSC841576), gemcitabine (NSC613327), inavolisib (NSC800729), ipatasertib (NSC767898), KB-0742 (NSC834161), MRTX-1133 (NSC836407), osimertinib (NSC779217), RMC-4630 (NSC839698), RMC-6236 (NSC851965), RMC-6291 (NSC852671), Ro-3306 (NSC812927), sapanisertib (NSC764658), SN-38 (NSC673596), staurosporine (NSC755774), SY5609 (NSC837396), and tovorafenib (DAY101, NSC766906), were obtained from the National Cancer Institute (NCI) Developmental Therapeutics Program Chemical Repository. The FDA-approved anticancer drug set is available from the NCI Developmental Therapeutics Program. […] The stock solutions were prepared in dimethyl sulfoxide (DMSO, Sigma-Aldrich, St. Louis, MO, cat. D2650) at 800-fold the tested concentration and stored at -70 degrees C prior to their use. All drugs and investigational agents were tested over a range starting from a high concentration at or near the clinical Cmax and decreasing in half-log increments. If the clinical Cmax for an agent had not been determined, the highest concentration tested was 10 microM.
Cell Culture. All cells were maintained in an incubator at 37 degrees C and 5% CO2 with 95% humidity. The PDC lines were cultured according to standard operating procedures established by the NCI PDMR. All PDCs were thawed and cultured in Matrigel-coated flasks prepared with a working solution of 1X Ham's F-12 nutrient mix, without supplementation (Invitrogen, Waltham, MA, cat. 11765054), 100 U/mL penicillin-streptomycin (Invitrogen, cat. 15140122), and 2.5% Matrigel (Corning Inc., Corning, NY, cat. 354248) for the first three passages. The 362531-283-R-J2-PDC and 782815-120-R-J1-PDC lines were cultured in 6C/Colon 1B media, which includes advanced DMEM/F-12 (Thermo Fisher Scientific, cat. 12634028), 10 mM HEPES (Thermo Fisher Scientific, cat. 15630080), 1X GlutaMAX supplement (Thermo Fisher Scientific, cat. 35050061), 0.1 mg/mL primocin (InvivoGen, San Diego, CA, cat. ant-pm-2), 10% defined fetal bovine serum, heat inactivated (HyClone Laboratories Inc., Logan, UT, cat. SH30070.03HI), 50% L-WRN conditioned media (ATCC, cat. CRL-3276), 1.25 mM N-Acetyl-L-cysteine (Sigma-Aldrich, cat. A9165), 10 mM nicotinamide (Sigma-Aldrich, cat. N0636), 1X B-27 supplement (Thermo Fisher Scientific, cat. 17504044), 1X N-2 supplement (Thermo Fisher Scientific, cat. 17502048), 50 ng/mL human EGF (Thermo Fisher Scientific, cat. PHG0311), and 10 microM Y-27632 dihydrochloride (Tocris Bioscience, cat. 1254). The K12877-001-R-J1-PDC line was cultured in 6I media, which includes all 6C/Colon 1B media plus 10 ng/mL human FGF-10 (PeproTech, cat. 100-26), 1 ng/mL human FGF-2 (PeproTech, cat. 100-18B), 1 µM prostaglandin E2 (Tocris Bioscience, cat. 2296), […] hydrocortisone (Sigma-Aldrich, cat. H4001), and […] bovine insulin (Sigma-Aldrich, cat. I6634). The K86415-001-R-J1-PDC line was cultured in 6D media, which includes all 6C/Colon 1B media components minus the L-WRN conditioned media. The 485176-168-R4-J1-PDC was cultured in PANC media, which includes all 6C/Colon 1B media plus 100 ng/mL human FGF-10 (PeproTech, cat. 100-26), 500 nM SB-431542 (Selleckchem, cat. S1067), and 10 nM gastrin (Tocris Bioscience, cat. 3006). […]

[1] = curve of first compound, second compound 0.00316 µM
[2] = curve of first compound, second compound 0.01 µM
[3] = curve of first compound, second compound 0.0316 µM
[4] = curve of first compound, second compound 0.1 µM
[5] = curve of first compound, second compound 0.316 µM
[6] = curve of first compound, second compound 1 µM
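Further: spheroids exposed to agents for one week before readout.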
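Wherever viability, T/C is given: percent viability relative to DMSO vehicle control wells as 100%.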

- IC50 [1]: 36.3 nM
- IC50 [2]: 32.9 nM
- IC50 [3]: 43.7 nM
- IC50 [4]: 34.6 nM
- IC50 [5]: 51.5 nM
- IC50 [6]: 29.2 nM
SMILES: CC(C)n1nc(-c2ccc3oc(N)nc3c2)c2c(N)ncnc21 + C=CC(=O)N1CCN(c2nc(OCC3CCCN3C)nc3c(F)c(-c4nc(N)cc(C)c4C(F)(F)F)c(Cl)cc23)C(C)C1
- viability, T/C (second compound 0.00316 µM, first compound 0.000316 µM): 116%
- viability, T/C (second compound 0.00316 µM, first compound 0.001 µM): 83.6%
- viability, T/C (second compound 0.00316 µM, first compound 0.00316 µM): 111%
- viability, T/C (second compound 0.00316 µM, first compound 0.01 µM): 105%
- viability, T/C (second compound 0.00316 µM, first compound 0.0316 µM): 54.5%
- viability, T/C (second compound 0.00316 µM, first compound 0.1 µM): 17.7%
- viability, T/C (second compound 0.01 µM, first compound 0.000316 µM): 110%
- viability, T/C (second compound 0.01 µM, first compound 0.001 µM): 108%
- viability, T/C (second compound 0.01 µM, first compound 0.00316 µM): 112%
- viability, T/C (second compound 0.01 µM, first compound 0.01 µM): 94.2%
- viability, T/C (second compound 0.01 µM, first compound 0.0316 µM): 51.5%
- viability, T/C (second compound 0.01 µM, first compound 0.1 µM): 19.6%
- viability, T/C (second compound 0.0316 µM, first compound 0.000316 µM): 123%
- viability, T/C (second compound 0.0316 µM, first compound 0.001 µM): 113%
- viability, T/C (second compound 0.0316 µM, first compound 0.00316 µM): 121%
- viability, T/C (second compound 0.0316 µM, first compound 0.01 µM): 101%
- viability, T/C (second compound 0.0316 µM, first compound 0.0316 µM): 62.5%
- viability, T/C (second compound 0.0316 µM, first compound 0.1 µM): 18.9%
- viability, T/C (second compound 0.1 µM, first compound 0.000316 µM): 103%
- viability, T/C (second compound 0.1 µM, first compound 0.001 µM): 97.3%
- viability, T/C (second compound 0.1 µM, first compound 0.00316 µM): 106%
- viability, T/C (second compound 0.1 µM, first compound 0.01 µM): 106%
- viability, T/C (second compound 0.1 µM, first compound 0.0316 µM): 52.4%
- viability, T/C (second compound 0.1 µM, first compound 0.1 µM): 21.1%
- viability, T/C (second compound 0.316 µM, first compound 0.000316 µM): 103%
- viability, T/C (second compound 0.316 µM, first compound 0.001 µM): 82.2%
- viability, T/C (second compound 0.316 µM, first compound 0.00316 µM): 132%
- viability, T/C (second compound 0.316 µM, first compound 0.01 µM): 116%
- viability, T/C (second compound 0.316 µM, first compound 0.0316 µM): 68.4%
- viability, T/C (second compound 0.316 µM, first compound 0.1 µM): 24.9%
- viability, T/C (second compound 1 µM, first compound 0.000316 µM): 92.5%
- viability, T/C (second compound 1 µM, first compound 0.001 µM): 102%
- viability, T/C (second compound 1 µM, first compound 0.00316 µM): 111%
- viability, T/C (second compound 1 µM, first compound 0.01 µM): 91.9%
- viability, T/C (second compound 1 µM, first compound 0.0316 µM): 47.1%
- viability, T/C (second compound 1 µM, first compound 0.1 µM): 20.3%

- IC50 [1]: 10.2 nM
- IC50 [2]: 12.4 nM
- IC50 [3]: 6.79 nM
- IC50 [4]: 13.1 nM
- IC50 [5]: 12.2 nM
- IC50 [6]: 13.8 nM
SMILES: CC1(C)CCC(Nc2ncc(C(F)(F)F)c(-c3c[nH]c4c(P(C)(C)=O)c(C#N)ccc34)n2)CN1 (centres undefined) + C=CC(=O)N1CCN(c2nc(OCC3CCCN3C)nc3c(F)c(-c4nc(N)cc(C)c4C(F)(F)F)c(Cl)cc23)C(C)C1
- viability, T/C (second compound 0.00316 µM, first compound 0.000949 µM): 103%
- viability, T/C (second compound 0.00316 µM, first compound 0.003 µM): 113%
- viability, T/C (second compound 0.00316 µM, first compound 0.00949 µM): 52.6%
- viability, T/C (second compound 0.00316 µM, first compound 0.03 µM): 14%
- viability, T/C (second compound 0.00316 µM, first compound 0.0949 µM): 9.67%
- viability, T/C (second compound 0.00316 µM, first compound 0.3 µM): 8.68%
- viability, T/C (second compound 0.01 µM, first compound 0.000949 µM): 102%
- viability, T/C (second compound 0.01 µM, first compound 0.003 µM): 124%
- viability, T/C (second compound 0.01 µM, first compound 0.00949 µM): 61.4%
- viability, T/C (second compound 0.01 µM, first compound 0.03 µM): 16.4%
- viability, T/C (second compound 0.01 µM, first compound 0.0949 µM): 8.51%
- viability, T/C (second compound 0.01 µM, first compound 0.3 µM): 9.49%
- viability, T/C (second compound 0.0316 µM, first compound 0.000949 µM): 97.4%
- viability, T/C (second compound 0.0316 µM, first compound 0.003 µM): 99.6%
- viability, T/C (second compound 0.0316 µM, first compound 0.00949 µM): 30.1%
- viability, T/C (second compound 0.0316 µM, first compound 0.03 µM): 15.9%
- viability, T/C (second compound 0.0316 µM, first compound 0.0949 µM): 10.5%
- viability, T/C (second compound 0.0316 µM, first compound 0.3 µM): 9.47%
- viability, T/C (second compound 0.1 µM, first compound 0.000949 µM): 118%
- viability, T/C (second compound 0.1 µM, first compound 0.003 µM): 117%
- viability, T/C (second compound 0.1 µM, first compound 0.00949 µM): 64%
- viability, T/C (second compound 0.1 µM, first compound 0.03 µM): 13.9%
- viability, T/C (second compound 0.1 µM, first compound 0.0949 µM): 9.91%
- viability, T/C (second compound 0.1 µM, first compound 0.3 µM): 8.45%
- viability, T/C (second compound 0.316 µM, first compound 0.000949 µM): 103%
- viability, T/C (second compound 0.316 µM, first compound 0.003 µM): 108%
- viability, T/C (second compound 0.316 µM, first compound 0.00949 µM): 59.7%
- viability, T/C (second compound 0.316 µM, first compound 0.03 µM): 15.8%
- viability, T/C (second compound 0.316 µM, first compound 0.0949 µM): 8.13%
- viability, T/C (second compound 0.316 µM, first compound 0.3 µM): 8.27%
- viability, T/C (second compound 1 µM, first compound 0.000949 µM): 113%
- viability, T/C (second compound 1 µM, first compound 0.003 µM): 118%
- viability, T/C (second compound 1 µM, first compound 0.00949 µM): 67.2%
- viability, T/C (second compound 1 µM, first compound 0.03 µM): 15.6%
- viability, T/C (second compound 1 µM, first compound 0.0949 µM): 9.94%
- viability, T/C (second compound 1 µM, first compound 0.3 µM): 7.89%

- IC50 (compound alone, run of 05/20/2024): > 300 nM
SMILES: CCn1c(-c2cc(N3CCN(C)CC3)cnc2C(C)OC)c2c3cc(ccc31)-c1csc(n1)CC(NC(=O)C1CC1C)C(=O)N1CCCC(N1)C(=O)OCC(C)(C)C2 (centres undefined)
- viability, T/C (compound 0.000949 µM): 97.8% [middle of 8 runs]

- IC50 (curve of compound): 33.4 nM [middle of 4 runs]
SMILES: CC(C)n1nc(-c2ccc3oc(N)nc3c2)c2c(N)ncnc21
- viability, T/C (compound 0.0316 µM): 52.2% [middle of 4 runs]
- viability, T/C (compound 0.1 µM): 18.5% [middle of 4 runs]
